These results are taken from US20040132697A1, “Treatment of female sexual dysfunction” (Pfizer Inc., priority 2002, published 2004).

Counter-ions that a name gives are not always drawn.

Data set [1] has as its system FSAD. Particulars: Rosen, R. C. et al (1999) J. Sex Marital Therapy 25, 137-144; cited from earlier work.
The subject of data set [2] is anaesthetised rabbit model of female sexual arousal. Nature of the data set: Anaesthetised rabbit model of female sexual arousal: pelvic nerve stimulated genital blood flow (laser Doppler). It is filed as in vivo. Particulars: for Potentiation of pelvic nerve stimulated increases in vaginal blood flow (% increase over basal increase): i.v. infusion, n=4. The text has this:
We have developed an animal model that mimics the physiological arousal response observed during female sexual arousal and directly reflects the clinical data obtained in human volunteers. The model uses Laser Doppler technologies to record small changes in vaginal and clitoral blood flow induced by pelvic nerve stimulation or vasoactive neurotransmitters. During sexual arousal, there is an increase in genital blood flow resulting from increased innervation from the pelvic nerve. The pelvic nerve-stimulated increase in vaginal and clitoral blood flow, observed in the animal model, represents the endogenous vascular effects observed during female sexual arousal. Therefore this model can be used to firstly, identify the mechanisms involved in the regulation of vaginal and clitoral blood flow and secondly, to validate novel approaches for the enhancement of genital blood flow.
(a) The Experimental Details are Described in European patent application EP 1 097 719 A1, Paragraphs [0495]-[0500]
(b) Infusion of Test Compound to Achieve Free Plasma Concentration Equivalent to 0.1 to 100 Times the pA2 α1A and/or α1L Adrenergic Receptors.
To achieve steady state plasma concentrations of the test compound, a loading dose was administered followed by infusion of a steady state dose. The test compound was made up in acidified saline (5% 1M HCl in saline) and details of the infusion protocols are given in the Table below. Test compound and vehicle controls were infused at the same rate. The test compound was infused for 15 minutes prior to pelvic nerve stimulation.
All data are reported as mean±s.e.m. (Standard error of the mean). Significant changes were identified using Student's t-tests (independent).
Compound 1, a potent and selective α1A and/or α1L adrenergic receptor antagonist, enhanced pelvic nerve stimulated (PNS) increases in genital blood flow in the anaesthetised rabbit model of sexual arousal. Repetitive PNS at 15 minute intervals induced reproducible increases in genital blood flow (Open Bar). […] The percentage increase over basal stimulations are showin in table 1 below. […] Data expressed as mean±sem (n=4); all changes were monitored using laser Doppler technologies.

Take `Cc1ccc(N(CC2=NCCN2)c2cccc(O)c2)cc1` [Phentolamine mesylate]: the “Effect on FSAD in small pilot study” value in data set [1] is recorded as “mild improvements”.

For the molecule `COc1cc(C2CC2)c2c(=O)[nH]c(N3CCc4nc(CN5CCOCC5)ccc4C3)nc2c1` [Compound 1, 5-cyclopropyl-7-methoxy-2-(2-(4-morpholinylmethyl)-7,8-dihydro[1,6]naphthyridin-6(5H)-yl)-4(3H)-quinazolinone], the Clitoral blood flow entry in data set [2] (data not shown) is recorded as “increased”. Moreover, in data set [2] (during infusion), the Cardiovascular effects entry is on record as “No significant cardiovascular effects”. Also, the “Potentiation of pelvic nerve stimulated increases in vaginal blood flow (% increase over basal increase)” value was found to be 39% in data set [2] (free plasma concentration 0.1 × pA2 α1A and/or α1L), 102% in data set [2] (free plasma concentration 1 × pA2 α1A and/or α1L), 104% in data set [2] (free plasma concentration 10 × pA2 α1A and/or α1L) and 213% in data set [2] (free plasma concentration 100 × pA2 α1A and/or α1L). For the same molecule, the “Pelvic nerve stimulated (PNS) increases in genital blood flow” value in data set [2] (submaximal stimulation (eg 4 Hz), versus time matched or vehicle controls) is reported as “enhanced”.
